Assay results as given in ChEMBL document CHEMBL1201862, “PubChem BioAssay data set” (2004).
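These data come from cells grown in 96-well plates and exposed to compound for 48 hours at five concentrations. GI50 marks 50% less growth.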 Activity calls are given as the source filed them. Cut-off read from the data, not from the text of the source: active = GI50 up to about 1.1 µM and inactive = higher.

What was measured:
Assay in all cases: NCI anticancer screen, dose series, 48 h
[1] = system: Malme-3M
[2] = system: U-251
[3] = system: IGROV-1
[4] = system: Hs-578T
[5] = system: UO-31
[6] = system: RPMI-8226
[7] = system: UACC-62
[8] = system: MOLT-4
[9] = system: PC-3
[10] = system: NCI-H23
[11] = system: SK-OV-3
[12] = system: HCT-15
[13] = system: 786-0
[14] = system: HCC 2998
[15] = system: SN12C
[16] = system: A549
[17] = system: NCI/ADR-RES
[18] = system: SW-620
[19] = system: LOX IMVI
[20] = system: SF-268

SMILES: CCOC(=O)CCN1C(=O)c2ccc(NC(=O)C(=O)O)cc2S1(=O)=O
- GI50 [1]: > 100 µM (inactive)
- GI50 [2]: > 100 µM (inactive)
- GI50 [3]: > 100 µM (inactive)
- GI50 [4]: > 100 µM (inactive)
- GI50 [5]: > 100 µM (inactive)
- GI50 [6]: > 100 µM (inactive)
- GI50 [7]: > 100 µM (inactive)
- GI50 [8]: > 100 µM (inactive)
- GI50 [9]: > 100 µM (inactive)
- GI50 [10]: > 100 µM (inactive)
- GI50 [11]: > 100 µM (inactive)
- GI50 [12]: > 100 µM
- GI50 [13]: > 100 µM (inactive)
- GI50 [14]: > 100 µM (inactive)
- GI50 [15]: > 100 µM (inactive)
- GI50 [16]: > 100 µM (inactive)
- GI50 [17]: > 100 µM (inactive)
- GI50 [18]: > 100 µM (inactive)
- GI50 [19]: > 100 µM (inactive)

SMILES: O=[N+]([O-])c1ccc(C2ON=C(c3ccccc3)N2C23CC4CC(CC(C4)C2)C3)cc1 (centres undefined)
- GI50 [1]: > 10 µM (inactive)
- GI50 [2]: 6.35 µM (inactive)
- GI50 [3]: > 10 µM (inactive)
- GI50 [4]: 6.75 µM (inactive)
- GI50 [6]: > 10 µM (inactive)
- GI50 [20]: > 10 µM (inactive)
- GI50 [7]: > 10 µM (inactive)
- GI50 [8]: > 10 µM (inactive)
- GI50 [9]: > 10 µM (inactive)
- GI50 [10]: > 10 µM (inactive)
- GI50 [11]: > 10 µM (inactive)
- GI50 [12]: > 10 µM
- GI50 [13]: > 10 µM (inactive)
- GI50 [14]: > 10 µM (inactive)
- GI50 [15]: > 10 µM (inactive)
- GI50 [16]: > 10 µM (inactive)
- GI50 [17]: > 10 µM (inactive)
- GI50 [18]: > 10 µM (inactive)
- GI50 [19]: > 10 µM (inactive)

SMILES: N#Cc1nc(C2CC2)oc1N
- GI50 [1]: 94.4 µM (inactive)
- GI50 [2]: > 100 µM (inactive)
- GI50 [3]: > 100 µM (inactive)
- GI50 [4]: > 100 µM (inactive)
- GI50 [6]: > 100 µM (inactive)
- GI50 [20]: > 100 µM (inactive)
- GI50 [7]: > 100 µM (inactive)
- GI50 [8]: > 100 µM (inactive)
- GI50 [9]: > 100 µM (inactive)
- GI50 [10]: > 100 µM (inactive)
- GI50 [11]: > 100 µM (inactive)
- GI50 [12]: > 100 µM
- GI50 [13]: > 100 µM (inactive)
- GI50 [14]: > 100 µM (inactive)
- GI50 [15]: > 100 µM (inactive)
- GI50 [16]: > 100 µM (inactive)
- GI50 [17]: > 100 µM (inactive)
- GI50 [18]: > 100 µM (inactive)
- GI50 [19]: > 100 µM (inactive)

SMILES: CC(C)=CCN1c2ccccc2NC(=O)CC1C (centres undefined)
- GI50 [1]: > 100 µM (inactive)
- GI50 [2]: > 100 µM (inactive)
- GI50 [3]: > 100 µM (inactive)
- GI50 [4]: > 100 µM (inactive)
- GI50 [5]: 83.4 µM (inactive)
- GI50 [6]: > 100 µM (inactive)
- GI50 [20]: > 100 µM (inactive)
- GI50 [8]: > 100 µM (inactive)
- GI50 [9]: > 100 µM (inactive)
- GI50 [10]: > 100 µM (inactive)
- GI50 [11]: > 100 µM (inactive)
- GI50 [12]: > 100 µM
- GI50 [13]: > 100 µM (inactive)
- GI50 [14]: > 100 µM (inactive)
- GI50 [15]: 33.3 µM (inactive)
- GI50 [16]: > 100 µM (inactive)
- GI50 [17]: 49.8 µM (inactive)
- GI50 [18]: > 100 µM (inactive)
- GI50 [19]: > 100 µM (inactive)

SMILES: COC(=O)c1ccc2[nH]c3c(c2c1)CC(=O)Nc1ccccc1-3
- GI50 [1]: > 100 µM (inactive)
- GI50 [2]: 6.68 µM (inactive)
- GI50 [3]: 44.2 µM (inactive)
- GI50 [4]: > 100 µM (inactive)
- GI50 [5]: 0.0278 µM (active)
- GI50 [6]: > 100 µM (inactive)
- GI50 [20]: 9.18 µM (inactive)
- GI50 [7]: > 100 µM (inactive)
- GI50 [8]: 1.31 µM (inactive)
- GI50 [9]: > 100 µM (inactive)
- GI50 [11]: 41.7 µM (inactive)
- GI50 [12]: > 100 µM
- GI50 [13]: > 100 µM (inactive)
- GI50 [14]: > 100 µM (inactive)
- GI50 [15]: > 100 µM (inactive)
- GI50 [16]: > 100 µM (inactive)
- GI50 [17]: > 100 µM (inactive)
- GI50 [18]: > 100 µM (inactive)
- GI50 [19]: > 100 µM (inactive)

SMILES: C#C[C@]1(O)CC[C@H]2[C@@H]3CCc4cc(OC(=O)c5cccc6cc7ccccc7nc56)ccc4[C@H]3CC[C@@]21C
- GI50 [1]: 6.44 µM (inactive)
- GI50 [2]: 24 µM (inactive)
- GI50 [3]: 14.6 µM (inactive)
- GI50 [4]: 25.6 µM (inactive)
- GI50 [6]: 22 µM (inactive)
- GI50 [20]: 67.5 µM (inactive)
- GI50 [7]: 28.5 µM (inactive)
- GI50 [8]: 6.98 µM (inactive)
- GI50 [9]: 35.9 µM (inactive)
- GI50 [10]: 40.3 µM (inactive)
- GI50 [11]: 62.1 µM (inactive)
- GI50 [12]: 26.1 µM
- GI50 [13]: 27.5 µM (inactive)
- GI50 [14]: 29.4 µM (inactive)
- GI50 [15]: 20.9 µM (inactive)
- GI50 [16]: 34 µM (inactive)
- GI50 [17]: 28.8 µM (inactive)
- GI50 [18]: 29.7 µM (inactive)
- GI50 [19]: 20.5 µM (inactive)
